We go through eight molecules from patent publication US10214518B2, “Pyrazolyl substituted carbonic acid derivatives as modulators of the prostacyclin (PGI2) receptor useful for the treatment of disorders related thereto” (Arena Pharmaceuticals, Inc., priority 2008, dated 2019).

The test system of test [1] is MCT-induced pulmonary arterial hypertension in rat. The experiment in a line: Rat monocrotaline (MCT) model of pulmonary arterial hypertension. The class given is in vivo. The note with it: 30 mg/kg oral gavage twice a day for 21 days; 60 mg/kg MCT s.c.; male Wistar rats; Day 22. The protocol:
Example 4: Rat Model of Pulmonary Arterial Hypertension
Male Wistar rats (100-150 g at start of study) (Charles River Laboratories, Wilmington, Mass.) were housed two per cage and maintained in a humidity—(40-60%) and temperature—(68-72° F.) controlled facility on a 12 hr:12 hr light/dark cycle (lights on at 6:30 am) with free access to food (Harlan Teklad, Orange Calif., Rodent Diet 8604) and water. Rats were allowed one week of habituation to the animal facility before testing.
The rat monocrotaline (MCT) model is a standard and well-accepted model of pulmonary arterial hypertension. MCT induces acute pulmonary endothelial damage associated with pulmonary vascular inflammation. […]
Rats were randomly given a single subcutaneous injection of either 60 mg/kg MCT (Sigma, St. Louis, Mo.) or 0.9% saline (sham) and assigned to receive oral administration of 20% hydroxypropyl beta-cyclodextrin (vehicle) or test compound (30 mg/kg; FIGS. 1 and 2). […] Heart chamber weights were measured on Day 22. […] The ratio of right ventricular (RV) weight to left ventricle plus septum (LV+S) weight (this ratio is indicated as “RV/(LV+S)” in FIGS. 1 and 2) was calculated as an index of the hypertrophic response to the induced pulmonary arterial hypertension and, as such, as an index of a test compound's therapeutic efficacy for pulmonary arterial hypertension.

Test [2] has as its target human prostacyclin (PGI2) receptor (Homo sapiens (Human), UniProt P43119). Put plainly: HTRF assay for direct cAMP measurement. The class given is cell-based. The conditions noted are these: recombinant CHO-K1 cells stably transfected with human prostacyclin receptor; cAMP increase. The source says:
Example 2: Homogeneous Time-Resolved Fluorescence (HTRF®) Assay for Direct cAMP Measurement
Compounds were screened for agonists of the human prostacyclin (PGI2) receptor using the HTRF® assay for direct cAMP measurement (Gabriel et al., ASSAY and Drug Development Technologies, 1:291-303, 2003) and recombinant CHO-K1 cells stably transfected with human prostacyclin receptor. CHO-K1 cells were obtained from ATCC® (Manassas, Va.; Catalog # CCL-61). An agonist of the prostacyclin receptor was detected in HTRF® assay for direct cAMP measurement as a compound which increased cAMP concentration. HTRF® assay also was used to determine EC50 values for prostacyclin receptor agonists.
The HTRF® assay kit was purchased from Cisbio-US, Inc. (Bedford, Mass.; Catalog #62AM4PEC). The HTRF® assay supported by the kit is a competitive immunoassay between endogenous cAMP produced by the CHO-K1 cells and tracer cAMP labeled with the dye d2. The tracer binding is visualized by a monoclonal anti-cAMP antibody labeled with Cryptate. The specific signal (i.e., fluorescence resonance energy transfer, FRET) is inversely proportional to the concentration of unlabeled cAMP in the standard or sample.
The fluorescence ratio (665 nm/620 nm) of the standards (0.17 to 712 nM cAMP) included in the assay was calculated and used to generate a cAMP standard curve according to the kit manufacturer's instructions. The fluorescence ratio of the samples (test compound or compound buffer) was calculated and used to deduce respective cAMP concentrations by reference to the cAMP standard curve.
The HTRF® assay was carried out using a two-step protocol essentially according to the kit manufacturer's instructions, in 20 μL total volume per well in 384-well plate format (ProxiPlates; PerkinElmer, Fremont, Calif.; catalog #6008280). To each of the experimental wells was transferred 3000 recombinant CHO-K1 cells in 5 μL assay buffer (phosphate buffered saline containing calcium chloride and magnesium chloride (Invitrogen, Carlsbad, Calif.; catalog #14040) supplemented with IBMX (100 μM) and rolipram (10 μM) (phosphodiesterase inhibitors; Sigma-Aldrich, St. Louis, Mo.; catalog #15879 and catalog #R6520, respectively) and 0.1% bovine serum albumin (BSA) fraction V (Sigma-Aldrich; catalog # A3059)), followed by test compound in 5 μL assay buffer or 5 μL assay buffer. The plate was then incubated at room temperature for 1 h. […] The plate was then further incubated at room temperature for 1 h, after which the assay plate was read.
The HTRF® readout was accomplished using a PHERAstar (BMG LABTECH Inc., Durham, N.C.) or EnVision™ (PerkinElmer, Fremont Calif.) microplate reader.

For test [3], the system named is human platelet-rich plasma (PRP). Put plainly: Human platelet aggregation inhibition test (ADP-induced, PRP). The class given is cell-based. The conditions noted are these: inhibition of aggregation induced by 1x10^-5 M ADP in human PRP. How it is done:
Example 3: Human Platelet Aggregation Inhibition Test
Blood collected from healthy human volunteers in aqueous trisodium citrate solution was centrifuged at 150 g for 15 min and the upper layer was recovered to obtain platelet-rich plasma (PRP). The residual blood was centrifuged at 3000 g for 10 min and the supernatant was collected as platelet-poor plasma (PPP). Platelet concentration in the PRP was determined using the Z series Beckman Coulter particle counter (Beckman, Fullerton, Calif.) and adjusted to 250,000 platelets/μL using PPP. 480 μL of PRP was pre-incubated at 37° C. and stirred at 1200 rpm with 10 μL aqueous test compound solution for 1 min prior to induction of aggregation by the addition of 10 μL of aqueous adenosine diphosphate (ADP) solution to adjust the final ADP concentration in the PRP to 1×10^−5 M. The maximal amplitude of aggregation response within 3 min was determined and measured in triplicate using the Chronolog model 490 aggregometer (Chrono-log Corp., Havertown, Pa.). Percent inhibition of aggregation was calculated from the maximum decrease in optical density of the control (addition of water in place of the test compound solution) sample and of the samples containing test compound. The test compound was added to adjust the final concentration to the range 10^−9 to 10^−4 M, and IC50 values were determined by inhibition percentage of aggregation at each concentration.

Sequence of human prostacyclin (PGI2) receptor (P43119 whole entry): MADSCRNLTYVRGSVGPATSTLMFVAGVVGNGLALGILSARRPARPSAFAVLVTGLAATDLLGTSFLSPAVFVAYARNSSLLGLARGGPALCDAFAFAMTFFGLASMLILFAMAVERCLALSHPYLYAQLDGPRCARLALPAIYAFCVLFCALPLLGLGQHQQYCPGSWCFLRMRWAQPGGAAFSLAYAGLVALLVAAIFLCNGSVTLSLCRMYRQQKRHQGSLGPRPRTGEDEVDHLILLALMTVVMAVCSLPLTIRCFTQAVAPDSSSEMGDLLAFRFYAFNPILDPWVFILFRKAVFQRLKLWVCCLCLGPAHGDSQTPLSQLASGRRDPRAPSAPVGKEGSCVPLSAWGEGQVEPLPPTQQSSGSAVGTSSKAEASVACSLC

As for `COc1cccc(-c2c(-c3ccccc3)nn(C[C@H]3CC[C@@H](COCC(=O)O)CC3)c2C)c1` [Compound 14, 2-(((1s,4s)-4-((4-(3-Methoxyphenyl)-5-methyl-3-phenyl-1H-pyrazol-1-yl)methyl)cyclohexyl)methoxy)acetic Acid], the “right ventricle hypertrophic response, RV/(LV+S)” value in test [1] is reported as “inhibited the hypertrophic response”.
As to `COc1cccc(-c2c(-c3ccccc3)nn(C[C@H]3CC[C@@H](COCC(=O)O)CC3)c2SC)c1` [Compound 31, 2-(((1s,4s)-4-((4-(3-Methoxyphenyl)-5-(methylthio)-3-phenyl-1H-pyrazol-1-yl)methyl)cyclohexyl)methoxy)acetic Acid], the “right ventricle hypertrophic response, RV/(LV+S)” value in test [1] is on record as “inhibited the hypertrophic response”.
Regarding `CCSc1c(-c2cccc(OC)c2F)c(-c2ccccc2)nn1C[C@H]1CC[C@@H](COCC(=O)O)CC1` [Compound 90, 2-(((1s,4s)-4-((5-(Ethylthio)-4-(2-fluoro-3-methoxyphenyl)-3-phenyl-1H-pyrazol-1-yl)methyl)cyclohexyl)methoxy)acetic Acid], the concentration giving a half-maximal response (EC50) (usually the concentration at which the effect is half-maximal) in test [2] is 7 nM.
Turning to `CSc1c(-c2ccc(C)s2)c(-c2ccccc2)nn1C[C@H]1CC[C@@H](COCC(=O)O)CC1` [Compound 111, 2-(((1s,4s)-4-((5-(Methylthio)-4-(5-methylthiophen-2-yl)-3-phenyl-1H-pyrazol-1-yl)methyl)cyclohexyl)methoxy)acetic Acid], in test [2], the 50% effective concentration (EC50) came out at 16 nM. Besides, 28 nM corresponded to half-maximal inhibition in test [3] (IC50).
Take `CSc1c(-c2cncc(F)c2)c(-c2ccccc2)nn1C[C@H]1CC[C@@H](COCC(=O)O)CC1` [Compound 135, 2-(((1s,4s)-4-((4-(5-Fluoropyridin-3-yl)-5-(methylthio)-3-phenyl-1H-pyrazol-1-yl)methyl)cyclohexyl)methoxy)acetic Acid]: the IC50 (in general, the midpoint of a concentration-inhibition curve) in test [3] turned out to be 220 nM.
In test [3], `O=C(O)COC[C@H]1CC[C@@H](Cn2nc(-c3ccccc3)c(-c3ccccc3)c2SCCO)CC1` [Compound 146, 2-(((1s,4s)-4-((5-(2-Hydroxyethylthio)-3,4-diphenyl-1H-pyrazol-1-yl)methyl)cyclohexyl)methoxy)acetic Acid] came in with a 50% inhibitory concentration (IC50) of 70 nM.
As to `N#CCSc1c(-c2ccccc2)c(-c2ccccc2)nn1C[C@H]1CC[C@@H](COCC(=O)O)CC1` [Compound 184, 2-(((1s,4s)-4-((5-(Cyanomethylthio)-3,4-diphenyl-1H-pyrazol-1-yl)methyl)cyclohexyl)methoxy)acetic Acid], the EC50 in test [2] turned out to be 11 nM. The same molecule returned a 50% inhibitory concentration (IC50) in test [3] of 20 nM.
Regarding `COc1cccc(-c2c(-c3ccccc3)nn(C[C@H]3CC[C@@H](COCC(=O)O)CC3)c2SCCO)c1` [Compound 198, 2-(((1s,4s)-4-((5-(2-Hydroxyethylthio)-4-(3-methoxyphenyl)-3-phenyl-1H-pyrazol-1-yl)methyl)cyclohexyl)methoxy)acetic Acid], the EC50 in test [2] amounted to 2 nM.
